Legend:
LDLR [1] = assay: Combination treatment with 25-hydroxycholesterol and agRNAs (western, HepG2); type: cell-based, human; details: 25-hydroxycholesterol 2 μM
Protocol: (§1) Analysis of LDLR protein expression. Cells were harvested 4 days after transfection for western blotting analysis. Cells were detached from plates using cell dissociation solution (Sigma) and lysed with lysis buffer (50 mM Tris-HCl, 120 mM NaCl, 0.5% NP-40, 1 mM EDTA, 1 mM DTT, and protease inhibitor (Calbiochem)). Protein concentrations were quantified with BCA assay kit (Thermo Scientific). SDS-PAGE was performed using 7.5% Tris-HCl gels (Bio-Rad). Gels were run at 100 V for 60 min. After gel electrophoresis, proteins were transferred to nitrocellulose membrane (Hybond-C-Extra; GE Healthcare) at 100 V for 2 h. After blocking the membrane with 5% non-fat dry milk/TBST at room temperature for 1 h, the membrane was incubated with primary antibody specific for LDLR or β-actin at the following dilution ratio: anti-LDLR antibody (ab52818; 1:10,000; abcam), anti-β-actin antibody (1:20,000; Sigma). HRP-conjugated anti-rabbit (1:10,000; Jackson ImmunoResearch) or anti-mouse (1:20,000; Sigma) secondary antibody was used for visualizing proteins using SuperSignal West Pico Chemiluminescent Substrate (Thermo Scientific). Protein bands were quantified using ImageJ software.
Combination treatment with 25-hydroxycholesterol and agRNAs. dsRNAs (50 nM) were transfected into HepG2 cells as described above (Day 0), and the media were exchanged one day later. […]

LDLR [2] = assay: Western analysis of LDLR protein expression in HepG2 cells after transfection of duplex RNAs; type: cell-based, human; details: for effect on LDLR expression (in words): 50 nM, western analysis
Protocol: Cell culture and transfection. Unmodified, 2′-O-methyl, and 2′-fluoro RNAs with two 2′-deoxythymidine bases at the 3′ end were obtained from Integrated DNA Technologies or Alnylam Pharmaceuticals. HepG2 (American Type Culture Collection (ATCC)) and fibroblast cells (GM04281; Coriell) were cultured with Minimum Essential Medium Eagle (MEM; Sigma) supplemented with 10% FBS, 1% MEM non-essential amino acids (Sigma), and 1 mM sodium pyruvate (Sigma). HuH-7 (Japanese Collection of Research Bioresources) and SW480 cells (ATCC) were cultured with Dulbecco's Modified Eagle's Medium (Sigma) supplemented with 10% FBS and 1 mM sodium pyruvate. Cells were plated in 6-well plates at 120,000 (HepG2 and HuH-7), 60,000 (fibroblast), or 150,000 (SW480) cells/well 2 days before transfection. Duplex RNAs were transfected into cells using Lipofectamine RNAiMAX (Invitrogen). Cationic lipid (2.4 μL for 50 nM dsRNA) was added to OptiMEM (Invitrogen) containing oligonucleotides and the oligonucleotide-lipid mixture (250 μL) was incubated at room temperature for 20 min. OptiMEM (for HepG2 and fibroblast) or full media (for HuH-7 and SW480) was added to a final volume of 1.25 mL and the mixture was applied to cells. Media was exchanged 1 day later with fresh supplemented media (2 mL).
as §1
(§2) Analysis of Interferon Responsive Genes. mRNA levels of the interferon responsive genes including OAST, OAS2, MX1, IFITM1, and ISGF3γ were measured by qRT-PCR. agRNAs (50 nM) and Poly I:C (0-100 ng/mL; Sigma) were transfected into HepG2 cells using the cationic lipid as described above. Three days after transfection, total RNAs from dsRNA-treated, poly I:C-treated, or untreated samples were isolated using TRIzol. The RNAs were treated with DNase I at 25° C. for 10 min, followed by reverse transcription reaction at 37° C. for 2 h. qPCR was performed using iTaq SYBR Supermix and primers specific for the interferon responsive genes (Interferon Response Detection Kit; System Biosciences). LDLR protein levels on Day 4 were also measured by western blot analysis.

AGO2 = target: T1, AGO2 (Homo sapiens, UniProt Q9UKV8); assay: RNA immunoprecipitation (RIP) of AGO2 on the LDLR antisense transcript; type: cell-based; details: 50 nM, HepG2 cells
T1 construct: endogenous in cells; host or cells: HepG2
Protocol: Chromatin Immunoprecipitation (ChIP)/RNA Immunoprecipitation (RIP). HepG2 cells were seeded at 1,080,000 cells in 15 cm dishes 2 days before transfection for ChIP or RIP experiments. Two dishes were treated with activating agRNAs (LDLR-24(U/U) and LDLR-28(U/U)) or mismatch controls (LDLRmm1, LDLRmm3, and LDLRmm4) (50 nM). Four days after transfection, cells were crosslinked with 1% formaldehyde. Cells were recovered by scraping and nuclei were isolated using hypotonic lysis buffer (5 mL; 10 mM Tris-HCl (pH 7.5), 10 mM NaCl, 3 mM MgCl2, 0.5% NP-40). Nuclei were lysed in lysis buffer (1 mL; 1% SDS, 10 mM EDTA, 50 mM Tris-HCl (pH 8.1), 1× Roche protease inhibitors cocktail, 40 U/mL RNasin Plus RNase Inhibitor (Promega)) and sonicated (2 pulses, 20% power, 20 sec).
The cell lysate (100 μL) was incubated overnight with antibodies in immunoprecipitation buffer (1 mL; 0.01% SDS, 1.1% Triton-X-100, 1.2 mM EDTA, 16.7 mM Tris-HCl (pH 8.1), 167 mM NaCl, and 1× Roche protease inhibitors cocktail, 40 U/mL RNasin Plus RNase Inhibitor). Monoclonal anti-RNAP II (2 μg; Millipore) and polyclonal anti-H3K27me3 (2 μg; Millipore) antibodies were used for ChIP experiments. Polyclonal anti-AGO1 (2 μg; Millipore) and polyclonal anti-AGO2 (2 μg; Millipore) antibodies were used for RIP experiments. […] PCR products were analyzed on 2.5% agarose gel and stained with ethidium bromide.

[3] = system: interferon responsive genes (OAST, OAS2, MX1, IFITM1, ISGF3γ); assay: Analysis of interferon responsive genes by qRT-PCR in HepG2 cells; type: cell-based, human; details: agRNAs 50 nM, poly I:C 0-100 ng/mL, HepG2, three days after transfection
Protocol: as §2

T1 sequence (Q9UKV8 whole entry): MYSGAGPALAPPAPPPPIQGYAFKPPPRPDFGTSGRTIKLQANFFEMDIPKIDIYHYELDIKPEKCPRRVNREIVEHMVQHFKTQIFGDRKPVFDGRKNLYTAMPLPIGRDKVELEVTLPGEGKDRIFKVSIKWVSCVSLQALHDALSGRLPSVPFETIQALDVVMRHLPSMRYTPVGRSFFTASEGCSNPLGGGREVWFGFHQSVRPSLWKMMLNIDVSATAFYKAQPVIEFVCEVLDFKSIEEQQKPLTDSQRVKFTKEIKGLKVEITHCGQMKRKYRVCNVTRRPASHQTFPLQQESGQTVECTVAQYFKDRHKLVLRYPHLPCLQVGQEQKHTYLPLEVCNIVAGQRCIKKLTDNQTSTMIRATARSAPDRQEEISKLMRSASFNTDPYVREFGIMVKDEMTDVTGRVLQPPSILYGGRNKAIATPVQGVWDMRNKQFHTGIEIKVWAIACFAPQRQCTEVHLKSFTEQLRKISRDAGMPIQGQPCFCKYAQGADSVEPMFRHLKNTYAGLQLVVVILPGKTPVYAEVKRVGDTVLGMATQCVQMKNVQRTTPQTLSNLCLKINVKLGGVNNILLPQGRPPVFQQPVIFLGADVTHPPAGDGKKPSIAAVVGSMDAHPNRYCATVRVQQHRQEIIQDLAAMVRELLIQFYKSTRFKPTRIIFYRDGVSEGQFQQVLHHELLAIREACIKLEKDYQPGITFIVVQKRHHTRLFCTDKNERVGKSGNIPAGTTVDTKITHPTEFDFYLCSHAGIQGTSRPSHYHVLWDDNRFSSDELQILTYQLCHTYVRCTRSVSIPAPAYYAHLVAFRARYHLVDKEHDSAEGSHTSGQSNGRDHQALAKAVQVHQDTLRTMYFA

C[C@H](CCCC(C)(C)O)[C@H]1CC[C@H]2[C@@H]3CC=C4C[C@@H](O)CC[C@]4(C)[C@H]3CC[C@]12C [25-hydroxycholesterol]
baseline LDLR expression with 25-hydroxycholesterol alone (LDLR [1]): lowers baseline LDLR expression

LDLR-18: agRNA duplex; sense AAAUGACGUGGGCCCCGAGdTdT, antisense CUCGGGGCCCACGUCAUUUdTdT (sense AAAUGACGUGGGCCCCGAGDTDT; antisense CUCGGGGCCCACGUCAUUUDTDT; chemistry not fully specified)
effect on LDLR expression (in words) (LDLR [2]): appeared to reduce gene expression

LDLR-35: agRNA duplex; sense UCACAUUGAAAUGCUGUAAdTdT, antisense UUACAGCAUUUCAAUGUGAdTdT (sense UCACAUUGAAAUGCUGUAADTDT; antisense UUACAGCAUUUCAAUGUGADTDT; chemistry not fully specified)
effect on LDLR expression (in words) (LDLR [2]): appeared to reduce gene expression

LDLR-65: agRNA duplex; sense CACUGCAAACUCCUCCCCCdTdT, antisense GGGGGAGGAGUUUGCAGUGdTdT (sense CACUGCAAACUCCUCCCCCDTDT; antisense GGGGGAGGAGUUUGCAGUGDTDT; chemistry not fully specified)
effect on LDLR expression (in words) (LDLR [2]): appeared to reduce gene expression

LDLRmm3: mismatch duplex disrupting predicted seed sequence; sense UCCAGAAAAUGACGUGGGCdTdT, antisense GCCCACGUCAUUUUCUGGAdTdT (sense UCCAGAAAAUGACGUGGGCDTDT; antisense GCCCACGUCAUUUUCUGGADTDT; chemistry not fully specified)
recruitment of AGO2 to the LDLR antisense transcript (AGO2): not

LDLRmm4: mismatch duplex, three mismatches outside seed sequence; sense UGCUGUAAAUGAGGAGCGCdTdT, antisense GCGCUCCUCAUUUACAGCAdTdT (sense UGCUGUAAAUGAGGAGCGCDTDT; antisense GCGCUCCUCAUUUACAGCADTDT; chemistry not fully specified)
effect on LDLR expression (in words) (LDLR [2]): activation
recruitment of AGO2 to the LDLR antisense transcript (AGO2): recruitment of AGO2

polyinosinic-polycytidylic acid [poly I:C]
effect of poly I:C on LDLR expression (LDLR [2]; any concentrations tested (0-100 ng/mL), Day 4 western): did not upregulate LDLR expression
interferon-responsive gene expression (OAST, OAS2, MX1, IFITM1, ISGF3γ) [3]: substantially increases

— patent US20110110860A1, “MODULATION OF LDL RECEPTOR GENE EXPRESSION WITH DOUBLE-STRANDED RNAS TARGETING THE LDL RECEPTOR GENE PROMOTER” (The Board of Regents of the University of Texas System, priority 2009, published 2011)
